# Results reported in US7666660B2, “Method for mixing inside a capillary and devices for achieving same” (priority 2005, dated 2010).
# Target: β-galactosidase (β-Gal) (Escherichia coli, UniProt P00722)
# Details: substrate of β-galactosidase, components mixed in a vial, 35 min incubation, 25° C., pH 7.2 phosphate buffer with 1 mM MgCl2, Michaelis-Menten equation
# Description: β-galactosidase (β-Gal) (isolated from E. coli), fluorescein mono-β-D-galactopyranoside (FMG), and fluorescein sodium salt were purchased from Sigma-Aldrich (Oakville, ON, Canada). All other chemicals were from Sigma-Aldrich, Caledon, or BDH (Toronto, ON, Canada), and were of analytical grade. Stock solutions of 4.4 mM FMG and 5 nM β-Gal were prepared with 10 mM phosphate (pH 7.2) buffer containing 1 mM MgCl2, and stored at −80° C. The 10 nM phosphate (pH 7.2) buffer containing 1 mM MgCl2 was also used for enzyme reactions, and for capillary electrophoresis as a run buffer. […]
# All capillary electrophoresis (CE) experiments were carried out with a P/ACE MDQ instrument equipped with a laser-induced fluorescent (LIF) detector (Beckman-Coulter; Fullerton Calif.). Fluorescence was excited by a 488-nm line of an argon-ion laser (5 mW). […]
# 6 μL of 1 μM FMG, 3 μL of 1 nM β-Gal, and 9 μL of 10 mM phosphate buffer containing 1 mM MgCl2 were mixed in a 200 μL reservoir. […] The reaction mixture was directly used for quantifying the amount of the product by CE. […] The identification and quantitative assay of products were preformed by the addition of fluorescein (internal reference) to the reaction mixture.
# The Km and Kcat values were determined using an approach previously described by Berezovski et al. (Electrophoresis, 23:3398-403, 2002). […]
# Chain of β-galactosidase (β-Gal) (P00722 2-1024): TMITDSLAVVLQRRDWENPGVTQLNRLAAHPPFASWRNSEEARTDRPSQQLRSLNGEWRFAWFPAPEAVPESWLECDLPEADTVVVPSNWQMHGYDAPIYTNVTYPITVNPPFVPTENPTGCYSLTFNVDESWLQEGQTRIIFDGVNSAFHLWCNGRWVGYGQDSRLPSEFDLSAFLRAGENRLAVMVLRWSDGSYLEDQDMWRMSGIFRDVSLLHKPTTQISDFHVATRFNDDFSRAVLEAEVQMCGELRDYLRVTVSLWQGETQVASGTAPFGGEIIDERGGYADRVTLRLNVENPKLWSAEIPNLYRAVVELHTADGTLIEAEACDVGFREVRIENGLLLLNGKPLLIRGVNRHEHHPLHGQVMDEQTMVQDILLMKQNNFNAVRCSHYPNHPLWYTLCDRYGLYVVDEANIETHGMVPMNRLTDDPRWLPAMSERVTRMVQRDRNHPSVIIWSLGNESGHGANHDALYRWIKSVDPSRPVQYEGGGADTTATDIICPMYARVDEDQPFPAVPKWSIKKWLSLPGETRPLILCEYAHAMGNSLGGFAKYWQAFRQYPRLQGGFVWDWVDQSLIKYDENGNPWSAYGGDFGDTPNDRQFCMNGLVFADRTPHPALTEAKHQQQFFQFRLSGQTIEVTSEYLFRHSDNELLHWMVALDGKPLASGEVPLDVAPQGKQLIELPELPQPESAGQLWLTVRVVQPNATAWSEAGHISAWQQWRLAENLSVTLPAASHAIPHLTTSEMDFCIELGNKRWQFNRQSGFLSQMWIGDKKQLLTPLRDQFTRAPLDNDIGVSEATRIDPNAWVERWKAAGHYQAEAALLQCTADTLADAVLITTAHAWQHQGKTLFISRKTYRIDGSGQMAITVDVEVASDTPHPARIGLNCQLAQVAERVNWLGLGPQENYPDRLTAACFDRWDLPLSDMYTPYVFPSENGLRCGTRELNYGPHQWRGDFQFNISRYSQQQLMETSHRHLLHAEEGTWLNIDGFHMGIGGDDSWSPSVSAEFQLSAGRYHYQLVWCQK
compound,measurement,setting,value
"O=C1OC2(c3ccc(O)cc3Oc3cc(O[C@@H]4O[C@H](CO)[C@H](O)[C@H](O)[C@H]4O)ccc32)c2ccccc21 (stereo partly drawn) [fluorescein-mono-β-D-galactopyranoside, fluorescein mono-β-D-galactopyranoside]",Km,"read-out: Michaelis constant, Km",0.9 µM
same,"catalytic rate constant, kcat",,0.6 s⁻¹
